Earlier results as cited in US7745665B2, “Substituted phenethylamines” (Auspex Pharmaceuticals, Inc., priority 2007, dated 2010).

Settings: oxidation of the methylene group alpha to the nitrogen; humans

- hydroxymandelic acid metabolite as share of the recovered mass balance: more than 50%
SMILES: CNC[C@H](O)c1cccc(O)c1 [Phenylephrine, (R)-3-(1-hydroxy-2-methylamino-ethyl)-phenol]
